This is an account of results in ChEMBL document CHEMBL1201862, “PubChem BioAssay data set” (2004).

Some test systems named below: SF-295; COLO 205; IGROV-1; M14; CCRF-CEM; HT-29; Malme-3M; SK-MEL-2; HCT-15; HL-60; MOLT-4; SF-268; CAKI-1; SW-620; SK-MEL-5; KM12; RXF 393.
What all share (test): inhibition of tumour cell growth, NCI panel, 48 h

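Dose response: 5 concentrations. Exposure: 48 h. Format: 96-well plates. Endpoint: linear interpolation; highest concentration if not reached. Abbreviation: GI50, concentration required for 50% inhibition of growth.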 Activity calls are given as the source filed them. Cut-off read from the data, not from the text of the source: active = GI50 up to about 1.1 µM and inactive = higher. A value given as a limit tells only on which side of the number the result lay.

Turning to `COc1ccc(S(=O)(=O)N/N=C(\C)CN2C(=O)c3ccccc3C2=O)cc1OC`, the GI50 with SF-295, with COLO 205, with IGROV-1, in the experiment on M14, in the experiment on CCRF-CEM and in the experiment on HT-29 was > 100 µM (inactive) throughout. Besides, the GI50 in the experiment on Malme-3M was > 100 µM (inactive); with SK-MEL-2, > 100 µM (inactive); in the experiment with HCT-15, over 100 µM; in the experiment on HL-60, > 100 µM (inactive); in the experiment on MOLT-4 it was > 100 µM (inactive); in the experiment on SF-268, > 100 µM (inactive). Also, the GI50 in the experiment on CAKI-1, in the experiment with SW-620, in the experiment on SK-MEL-5 and with KM12 was > 100 µM (inactive) throughout.
Consider `Cc1cc(C)c2c(c1C)CN1CN2Cc2c(C)c(C)cc(C)c21`, for which the GI50 was > 100 µM (inactive) with SF-295; 45.6 µM (inactive) in the experiment on COLO 205; > 100 µM (inactive) with IGROV-1; > 100 µM (inactive) in the experiment on M14; > 100 µM (inactive) in the experiment on CCRF-CEM; 44.4 µM (inactive) in the experiment on HT-29. The GI50 is > 100 µM (inactive) in the experiment on Malme-3M; 20.4 µM with HCT-15; 11.4 µM (inactive) in the experiment with HL-60; 4.38 µM (inactive) with RXF 393; > 100 µM (inactive) in the experiment with MOLT-4; > 100 µM (inactive) in the experiment on SF-268. In addition, the GI50 in the experiment with CAKI-1, with SW-620 and with KM12 was > 100 µM (inactive) each time.
As for `c1ccc([S+](c2ccccc2)c2ccc(Sc3ccc([S+](c4ccccc4)c4ccccc4)cc3)cc2)cc1`, the GI50 in the experiment on SF-295 was 25.8 µM (inactive); in the experiment on COLO 205 it was 17.4 µM (inactive); in the experiment on IGROV-1 it was 43.2 µM (inactive); in the experiment with M14, 45.5 µM (inactive); with CCRF-CEM, 19.4 µM (inactive); in the experiment on HT-29, 18.2 µM (inactive). Also, the GI50 in the experiment on Malme-3M was 32.6 µM (inactive); with HCT-15, over 100 µM; in the experiment with HL-60, 2.58 µM (inactive); in the experiment on RXF 393 it was 19.7 µM (inactive); in the experiment with MOLT-4, 9.73 µM (inactive); in the experiment on SF-268, 22.3 µM (inactive). Besides, the GI50 in the experiment with CAKI-1 was 75.5 µM (inactive); in the experiment on SW-620, 37.9 µM (inactive); in the experiment on SK-MEL-5, 5.81 µM (inactive); in the experiment with KM12 it was 21.3 µM (inactive).
In the case of `Cc1cc(=O)oc2c1cc(OCC(=O)OCCN1CCCCC1)c1occ(C)c12`, the GI50 in the experiment on SF-295, in the experiment with M14, in the experiment with CCRF-CEM, in the experiment with HT-29, in the experiment on Malme-3M and with SK-MEL-2 was > 100 µM (inactive) in each case. The GI50 is over 100 µM in the experiment on HCT-15; > 100 µM (inactive) in the experiment on HL-60; > 100 µM (inactive) in the experiment with RXF 393; > 100 µM (inactive) in the experiment with MOLT-4; > 100 µM (inactive) in the experiment with CAKI-1; > 100 µM (inactive) in the experiment with SW-620. Also, the GI50 in the experiment with SK-MEL-5 and in the experiment with KM12 was > 100 µM (inactive) throughout.
For `CC#CC1/C(=C\C(=O)OC)CCCC1O` (configuration not stated), the GI50 in the experiment with SF-295, in the experiment with M14, in the experiment with CCRF-CEM, in the experiment with HT-29, with Malme-3M and in the experiment with SK-MEL-2 was > 100 µM (inactive) throughout. Also, the GI50 in the experiment with HCT-15 was over 100 µM; in the experiment with HL-60, > 100 µM (inactive); with RXF 393, > 100 µM (inactive); in the experiment on MOLT-4 it was > 100 µM (inactive); with SF-268, > 100 µM (inactive); with CAKI-1, > 100 µM (inactive). Moreover, the GI50 with SW-620, in the experiment with SK-MEL-5 and with KM12 was > 100 µM (inactive) in each case.
Take `CC(=O)NC(CCCNC(=O)OCc1ccccc1)C(=O)NCc1ccccc1` (configuration not stated): the GI50 in the experiment with SF-295, in the experiment on COLO 205, in the experiment with IGROV-1, with M14, with CCRF-CEM and with HT-29 was > 100 µM (inactive) each time. The GI50 in the experiment on Malme-3M was > 100 µM (inactive); in the experiment with SK-MEL-2 it was > 100 µM (inactive); in the experiment with HCT-15 it was over 100 µM; in the experiment with RXF 393, > 100 µM (inactive); in the experiment with MOLT-4 it was > 100 µM (inactive); with SF-268 it was > 100 µM (inactive). Also, the GI50 in the experiment with CAKI-1, with SW-620, in the experiment with SK-MEL-5 and with KM12 was > 100 µM (inactive) throughout.
Regarding `CNC(=O)N(CCCC(NC(C)=O)C(=O)NCc1ccccc1)Cc1ccccc1` (configuration not stated), the GI50 in the experiment with SF-295, in the experiment with COLO 205, in the experiment on IGROV-1, in the experiment with M14, with CCRF-CEM and with HT-29 was > 100 µM (inactive) in each case. The GI50 with Malme-3M was > 100 µM (inactive); in the experiment on SK-MEL-2 it was > 100 µM (inactive); with HCT-15 it was over 100 µM; in the experiment on RXF 393 it was > 100 µM (inactive); in the experiment on MOLT-4, > 100 µM (inactive); with SF-268, > 100 µM (inactive). In addition, the GI50 in the experiment on CAKI-1, in the experiment on SW-620, in the experiment on SK-MEL-5 and in the experiment with KM12 was > 100 µM (inactive) in each case.
On to `CCCCCCc1cc2c(C)c(C)c(=O)oc2cc1OCCCOc1cc2oc(=O)c(C)c(C)c2cc1CCCCCC`, for which the GI50 in the experiment on SF-295, in the experiment with IGROV-1, in the experiment with M14, in the experiment with CCRF-CEM, in the experiment with HT-29 and in the experiment with Malme-3M was > 100 µM (inactive) throughout. Also, the GI50 is > 100 µM (inactive) with SK-MEL-2; over 100 µM in the experiment on HCT-15; > 100 µM (inactive) in the experiment with HL-60; 43.4 µM (inactive) in the experiment on RXF 393; > 100 µM (inactive) with MOLT-4; > 100 µM (inactive) in the experiment on SF-268. Moreover, the GI50 in the experiment with CAKI-1, in the experiment on SW-620, with SK-MEL-5 and with KM12 was > 100 µM (inactive) in each case.
In the case of `CCOC(=O)C(C)(C)Oc1ccc2c(C)c(-c3ccc(Cl)cc3)c(=O)oc2c1`, the GI50 with SF-295 is 79.6 µM (inactive); in the experiment with COLO 205, 42.6 µM (inactive); in the experiment with IGROV-1, 75.9 µM (inactive); with M14, 74.8 µM (inactive); with CCRF-CEM it was 14.5 µM (inactive); in the experiment on HT-29 it was 20.7 µM (inactive). The GI50 in the experiment with Malme-3M is 33.3 µM (inactive); with SK-MEL-2, > 100 µM (inactive); in the experiment on HCT-15, 34.3 µM; with HL-60, 18.2 µM (inactive); in the experiment with RXF 393 it was > 100 µM (inactive); in the experiment with MOLT-4, 20 µM (inactive). The figures for the GI50 in the experiment on SF-268, in the experiment on SW-620 and in the experiment on SK-MEL-5 were > 100 µM (inactive), > 100 µM (inactive) and 13.4 µM (inactive), respectively.
As to `CSc1ccc2c(cc1=O)[C@@H](NC(=O)c1cc(O)c(O)c(O)c1)CCc1cc(O)c(O)c(O)c1-2`, the GI50 in the experiment on SF-295 was 23.7 µM (inactive); in the experiment on COLO 205, 28 µM (inactive); in the experiment on M14 it was 19.6 µM (inactive); in the experiment on CCRF-CEM, 3.33 µM (inactive); in the experiment with HT-29, 24 µM (inactive); with Malme-3M, 30 µM (inactive). Further, the GI50 in the experiment on HCT-15 was 20.2 µM; in the experiment with HL-60, 16.8 µM (inactive); with MOLT-4 it was 18.5 µM (inactive); in the experiment with SF-268, 37.4 µM (inactive); with SW-620 it was 17.1 µM (inactive); in the experiment on SK-MEL-5 it was 19.8 µM (inactive). The GI50 with KM12 is 20.9 µM (inactive).
Regarding `Cc1ccc2nc3c(C(=O)NCCN(C)C)cccc3nc2c1`, the GI50 in the experiment on SF-295 is 5.22 µM (inactive); in the experiment with COLO 205, 2.59 µM (inactive); in the experiment with IGROV-1, 7.03 µM (inactive); with M14, 5.12 µM (inactive); with HT-29, 2.32 µM (inactive); in the experiment on Malme-3M it was 2.47 µM (inactive). Moreover, the GI50 was 2.76 µM (inactive) in the experiment on SK-MEL-2; 2.9 µM in the experiment with HCT-15; 5.45 µM (inactive) in the experiment with HL-60; 3.56 µM (inactive) with RXF 393; 1.64 µM (inactive) with MOLT-4; 1.92 µM (inactive) in the experiment on SW-620. Besides, the figures for the GI50 in the experiment with SK-MEL-5 and with KM12 were 4.6 µM (inactive) and 3.94 µM (inactive), respectively.
`NC(=O)COc1ccc(Br)cc1Br`: the GI50 in the experiment on SF-295, in the experiment with COLO 205, with IGROV-1, in the experiment on M14, in the experiment with HT-29 and in the experiment with Malme-3M was > 100 µM (inactive) throughout. Moreover, the GI50 with SK-MEL-2 is > 100 µM (inactive); in the experiment on HCT-15, over 100 µM; with HL-60, > 100 µM (inactive); in the experiment with MOLT-4, > 100 µM (inactive); in the experiment on SF-268, > 100 µM (inactive); with CAKI-1, > 100 µM (inactive). Moreover, the GI50 was > 100 µM (inactive) with SW-620, > 100 µM (inactive) in the experiment on SK-MEL-5 and 85.3 µM (inactive) in the experiment with KM12.
On to `N/N=C(\c1nc2ccc(Cl)cc2nc1O)C(O)c1ccc(Cl)c(Cl)c1` (configuration not stated), for which the GI50 with SF-295 is > 100 µM (inactive); with COLO 205, 88.3 µM (inactive); in the experiment with IGROV-1, > 100 µM (inactive); with M14, > 100 µM (inactive); with CCRF-CEM, > 100 µM (inactive); with HT-29, > 100 µM (inactive). The GI50 in the experiment with Malme-3M is > 100 µM (inactive); with SK-MEL-2, > 100 µM (inactive); in the experiment with HCT-15, over 100 µM; with HL-60, > 100 µM (inactive); with RXF 393, > 100 µM (inactive); with MOLT-4 it was > 100 µM (inactive). For the same molecule, the GI50 in the experiment with SF-268 was > 100 µM (inactive); in the experiment on SW-620, 59.2 µM (inactive); in the experiment with SK-MEL-5 it was > 100 µM (inactive); in the experiment on KM12, 70.5 µM (inactive).
